Our source for the IC50 values is patent publication US20060264419A1 (priority 2003, published 2006).

Each structure is given as a SMILES string. Like-named read-outs stand apart in the source and are kept apart here.

The experiment addresses 5-HT2A receptors (Rattus norvegicus, UniProt P14842). Put plainly: in-vitro affinity to 5-HT2A receptors, displacement of [3H]ketanserine (Example A1). Type of experiment: binding. The text has this:
The 5-HT2A receptors are exposed both to [^3H]ketanserine (a substance which is known for its affinity to the receptor) and also to the test compound. The decrease in the affinity of [^3H]ketanserine to the receptor is an indication of the affinity of the test substance to the 5-HT2A receptor.

The mark [1] stands for this setting: target not given, description names affinity to 5-HT2A receptors, read-out: IC50.

Sequence of 5-HT2A receptors (P14842 whole entry): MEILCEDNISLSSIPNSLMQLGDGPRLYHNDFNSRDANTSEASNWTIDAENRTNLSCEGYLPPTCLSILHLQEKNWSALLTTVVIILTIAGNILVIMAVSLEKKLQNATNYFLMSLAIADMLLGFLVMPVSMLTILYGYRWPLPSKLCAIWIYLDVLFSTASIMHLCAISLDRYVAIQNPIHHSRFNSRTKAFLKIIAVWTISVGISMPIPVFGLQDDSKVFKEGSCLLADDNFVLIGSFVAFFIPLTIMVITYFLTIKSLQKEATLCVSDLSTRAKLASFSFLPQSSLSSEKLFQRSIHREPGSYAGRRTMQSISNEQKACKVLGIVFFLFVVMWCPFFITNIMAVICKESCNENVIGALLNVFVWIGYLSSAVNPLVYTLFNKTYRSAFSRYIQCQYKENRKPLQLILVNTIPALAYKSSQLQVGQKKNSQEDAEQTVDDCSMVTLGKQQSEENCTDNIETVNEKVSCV

Turning to `CN1CCN(Cc2cnn(-c3ccc(-c4cc(F)ccc4F)cc3)c2-c2ccccc2F)CC1` [(65), 1-[1-(2′,5′-Difluorobiphenyl-4-yl)-5-(2-fluorophenyl)-1H-pyrazol-4-ylmethyl]-4-methylpiperazine], the IC50 (as a rule, the concentration that inhibits the measured activity by half) under setting [1] is 0.055 µM.
Take `Fc1ccccc1-c1c(CN2CCN3CCc4ccccc4C3C2)cnn1-c1ccc(-c2ccccc2)cc1` (stereo not drawn) [Example 1031, 2-[1-Biphenyl-4-yl-5-(2-fluorophenyl)-1H-pyrazol-4-ylmethyl]-1,3,4,6,7,11b-hexahydro-2H-pyrazino[2,1-a]isoquinoline]: under “read-out: HT2A IC50”, the 50% inhibitory concentration (IC50) came out at 0.28 µM.
Regarding `CN1CCN(Cc2cnn(-c3ccc(-c4ccccc4)cc3)c2-c2ccccc2F)CC1` [(41), 1-[1-Biphenyl-4-yl-5-(2-fluorophenyl)-1H-pyrazol-4-ylmethyl]-4-methylpiperazine], the IC50 under setting [1] came to 0.024 µM.
The same measure, in the same setting: the result for `COC(=O)CCNCc1cnn(-c2ccc(-c3ccccc3)cc2)c1-c1cccnc1` [(183), Methyl 3-[(1-biphenyl-4-yl-5-pyridin-3-yl-1H-pyrazol-4-ylmethyl)amino]propionate] reads 0.83 µM.
Take `COc1ccc(-c2c(CN3CCN(C(C)C)CC3)cnn2-c2ccc(-c3ccc(F)cc3)cc2)cc1` [Example 1040, 1-[1-(4′-Fluorobiphenyl-4-yl)-5-(4-methoxy-phenyl)-1H-pyrazol-4-ylmethyl]-4-isopropyl-piperazine]: the IC50 (read-out: HT2A IC50) came out at 0.32 µM.
On the same count and under the same terms, the result for `CN1CCN(Cc2cnn(-c3ccc(-c4cccc(F)c4F)cc3)c2-c2ccccc2F)CC1` [Example 967, 1-[1-(2′,3′-Difluorobiphenyl-4-yl)-5-(2-fluoro-phenyl)-1H-pyrazol-4-ylmethyl]-4-methyl-piperazine] reads 0.073 µM.
Consider `CCN1CCCC1CNCc1cnn(-c2ccc(-c3ccccc3)cc2)c1-c1ccccc1F` (stereo not drawn) [(88), [1-Biphenyl-4-yl-5-(2-fluorophenyl)-1H-pyrazol-4-ylmethyl]-(1-ethylpyrrolidin-2-ylmethyl)amine], for which the IC50 under setting [1] is 0.02 µM.
Consider `CN1CCN(Cc2cnn(-c3ccc(-c4ccc(F)cc4)cc3)c2-c2cnccn2)CC1` [Example 972, 2-[2-(4′-Fluorobiphenyl-4-yl)-4-(4-methyl-piperazin-1-ylmethyl)-2H-pyrazol-3-yl]-pyrazine], for which the half-inhibitory concentration (IC50) (read-out: HT2A IC50) is 0.085 µM.
As for `CS(=O)(=O)N1CCN(Cc2cnn(-c3ccc(-c4ccccc4)cc3)c2-c2ccccc2F)CC1` [(123), 1-[1-Biphenyl-4-yl-5-(2-fluorophenyl)-1H-pyrazol-4-ylmethyl]-4-methanesulfonylpiperazine], the IC50 under setting [1] is 0.83 µM.
The same measure, in the same setting: in the case of `Fc1ccccc1-c1c(CCN2CCOCC2)cnn1-c1ccc(-c2ccccc2)cc1` [(185), 4-{2-[1-Biphenyl-4-yl-5-(2-fluorophenyl)-1H-pyrazol-4-yl]ethyl}morpholine] it was 0.04 µM; in that of `CN(CC(=O)OC(C)(C)C)Cc1cnn(-c2ccc(-c3ccccc3)cc2)c1-c1cccnc1` [(180), tert-Butyl [(1-biphenyl-4-yl-5-pyridin-3-yl-1H-pyrazol-4-ylmethyl)methylamino]acetate], 0.92 µM; in that of `Fc1ccccc1-c1c(CCl)cnn1-c1ccc(-c2ccccc2)cc1` [(189), 1-Biphenyl-4-yl-4-chloromethyl-5-(2-fluorophenyl)-1H-pyrazole], 1.1 µM.
With `CN(C)C1CCN(Cc2cnn(-c3ccc(-c4ccccc4)cc3)c2-c2ccccc2F)CC1` [Example 1008, {1-[1-Biphenyl-4-yl-5-(2-fluorophenyl)-1H-pyrazol-4-ylmethyl]piperidin-4-yl}dimethyl-amine], the IC50 (read-out: HT2A IC50) came out at 0.2 µM.
With `COc1ccccc1-c1c(CN2CCN(C)CC2)cnn1-c1ccc(-c2ccsc2)cc1` [(105), 1-[5-(2-Methoxyphenyl)-1-(4-thiophen-3-ylphenyl)-1H-pyrazol-4-ylmethyl]-4-methylpiperazine], the half-inhibitory concentration (IC50) under setting [1] is 0.46 µM.
In the case of `O=C(NCCO)C1CCN(Cc2cnn(-c3ccc(-c4ccccc4)cc3)c2-c2ccccc2F)CC1` [Example 1030, N-(2-Hydroxyethyl)-1-[1-biphenyl-4-yl-5-(2-fluorophenyl)-1H-pyrazol-4-ylmethyl]piperidine-4-carboxamide], the IC50 (read-out: HT2A IC50) is 0.27 µM.
